In paper PMC11267547, “Advancing drug discovery through assay development: a survey of tool compounds within the human solute carrier superfamily” (Frontiers in Pharmacology, 2024):

Legend:
SLC2A9 = SLC2A9 (Homo sapiens, UniProt Q9NRM0); assay: Membrane potential dye-based assay, HEK293 cells stably expressing isoform-1 or -2 of SLC2A9 vs mock; format: cell-based; conditions: SLC2A9 isoform-1 or -2 cells compared with non-transduced (mock) cells
Procedure: FLIPR Membrane Potential Blue Dye was used to detect the compound activities for those membrane transporters that are electrogenic or whose activity is associated with changes in membrane potential, as previously described ([Jensen and BräunerOsborne, 2004]). In brief, cells are seeded at cell line-specific density in black clear-bottom poly-D-Lysine-coated 384-well plates (Greiner Bio-One) in DMEM high-glucose medium with 10% FBS, 1% P/S, and 2 mM UltraGlutamine I (25 µL/well). Furthermore, 24 h after seeding, the culture medium is removed, and the cells are loaded with 20 µL/well of 0.5 X FMP Blue Dye in assay buffer (modified Tyrode’s buffer, 130 mM NaCl, 5 mM KCl, 1 mM MgCl2, 2 mM CaCl2, 5 mM NaHCO3, and 20 mM HEPES pH 7.4). The plates are subsequently incubated for at least 30 min at room temperature in the dark. Then, 10 µL/well of test compounds and controls is added at defined concentrations (0.5% DMSO final conc.) in the FLIPR TETRA instrument (Molecular Devices), and emitted fluorescence is recorded using a λexc 510–545-nm/λem 565–625-nm filter. The dose–response curves for the 19 compounds were prepared starting from 3 µM (final top concentration), the half-log serial dilution factor. For data analysis, Genedata Screener 19.0 software was used.

ENT1 (SLC29A1) = target: T1, ENT1 (SLC29A1) (Homo sapiens, UniProt Q99808); assay: Displacement assay with [3H]NBTI on human erythrocyte membranes; format: binding; conditions: [3H]NBTI displacement on erythrocyte membranes and TRACT assay (Figure 1E, Supplementary Figure S1)
T1 construct: from tissue; host or cells: human erythrocyte membranes
T1 sequence (Q99808 whole entry): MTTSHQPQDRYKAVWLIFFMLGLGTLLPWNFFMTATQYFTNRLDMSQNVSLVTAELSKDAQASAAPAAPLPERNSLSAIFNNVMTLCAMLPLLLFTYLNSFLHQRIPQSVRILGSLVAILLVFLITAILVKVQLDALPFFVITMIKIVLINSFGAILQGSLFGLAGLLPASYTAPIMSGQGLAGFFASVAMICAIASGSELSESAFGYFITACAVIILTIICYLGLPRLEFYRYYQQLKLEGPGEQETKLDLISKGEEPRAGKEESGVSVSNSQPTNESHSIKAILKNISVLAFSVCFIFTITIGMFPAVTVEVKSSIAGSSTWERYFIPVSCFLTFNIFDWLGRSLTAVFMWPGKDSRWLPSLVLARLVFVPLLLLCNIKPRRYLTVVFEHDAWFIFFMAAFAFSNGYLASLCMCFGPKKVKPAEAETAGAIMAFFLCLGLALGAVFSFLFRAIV
Procedure: Displacement assay with [3H]NBTI on human erythrocyte membranes expressing ENT1 (SLC29A1) was performed at 25°C, as described previously ([Vlachodimou et al., 2020]).

SLC28A2 (CNT2) = assay: Impedance-based TRACT assay, HEK293–JumpIn–SLC28A2 cells, adenosine response; format: cell-based, human; conditions: 31.6 µM pretreatment, non-induced (-dox) cells
SLC1A5 = target: T2, SLC1A5 (Homo sapiens, UniProt Q15758); assay: AspSnFR biosensor assay, asparagine uptake in HEK293 cells; format: cell-based; conditions: cells pretreated with 50 µM
T2 construct: host or cells: HEK293 expressing AspSnFR, transiently transfected with gpASNase1
T2 sequence (Q15758 whole entry): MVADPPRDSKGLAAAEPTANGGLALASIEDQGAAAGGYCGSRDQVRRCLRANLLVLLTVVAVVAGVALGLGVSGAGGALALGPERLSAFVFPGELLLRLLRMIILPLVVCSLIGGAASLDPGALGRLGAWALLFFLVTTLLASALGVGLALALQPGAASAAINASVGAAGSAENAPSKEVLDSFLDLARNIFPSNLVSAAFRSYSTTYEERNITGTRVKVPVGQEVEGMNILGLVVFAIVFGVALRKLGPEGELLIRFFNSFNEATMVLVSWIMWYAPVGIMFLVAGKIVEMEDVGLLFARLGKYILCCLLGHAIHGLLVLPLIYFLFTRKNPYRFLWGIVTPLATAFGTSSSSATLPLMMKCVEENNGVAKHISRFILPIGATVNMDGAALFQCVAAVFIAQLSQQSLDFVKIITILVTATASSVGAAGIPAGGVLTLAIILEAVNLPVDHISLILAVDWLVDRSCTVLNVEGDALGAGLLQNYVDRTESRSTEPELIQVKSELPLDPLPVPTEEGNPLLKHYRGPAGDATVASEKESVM
Procedure: HEK293 cells expressing AspSnFR were transiently transfected with EBPF-gpASNase1, trypsinized, and resuspended in 10% dialyzed FCS/PBS. Post-treatment with test compounds or vehicle, varying concentrations of asparagine were added. After a 30-min incubation at room temperature, flow cytometry analysis was performed using the BD LSR Fortessa X-20, following the protocol previously described ([Hellweg et al., 2024]).

all SLCs = assay: Selectivity entropy score against all SLCs (S_SLCs); parameters: species or system human; conditions: selectivity entropy score for all activity values against SLCs
Procedure: (§1) To assess the selectivity, a selectivity entropy score ([Uitdehaag and Zaman, 2011]) was implemented in KNIME. The entropy score was calculated twice for each compound, first against all SLCs (S_SLCs) and then against all proteins (S_other). Ideally, a low entropy value indicates a high selectivity of the inhibitor. However, as the inhibitors were not tested on a full panel of targets, but often only against one to three proteins, a low entropy value might not reflect its true selectivity. Therefore, Pareto ranking was performed using the corresponding node from the Erlwood KNIME open-source cheminformatics KNIME community extension. This ranking minimizes S_SLCs and S_other while maximizing the activity value and the count of SLCs the inhibitor was tested on.

MPC2 = tested on: MPC2; parameters: method as in GtoPdb 3023, PubMed 35278701; conditions: negative logarithm of the Molar value of IC50, Ki, EC50, and Kd values; ref GtoPdb 3023, PubMed 35278701; cited from earlier work
[1] = tested on: all proteins (SLCs and non-SLCs); assay: Selectivity entropy score against all proteins (S_other); parameters: species or system human
Procedure: as §1

GPR35 = tested on: GPR35; parameters: method as in ChEMBL; conditions: negative logarithm of the Molar value; ref ChEMBL; cited from earlier work
PDE1C = tested on: PDE1C; parameters: method as in ChEMBL; conditions: negative logarithm of the Molar value; ref ChEMBL; cited from earlier work
PDE5A = tested on: PDE5A; parameters: method as in ChEMBL; conditions: negative logarithm of the Molar value; ref ChEMBL; cited from earlier work
PDE10A = tested on: PDE10A; parameters: method as in ChEMBL; conditions: negative logarithm of the Molar value; ref ChEMBL; cited from earlier work

Sequence of SLC2A9 (Q9NRM0 51-540 limits assumed): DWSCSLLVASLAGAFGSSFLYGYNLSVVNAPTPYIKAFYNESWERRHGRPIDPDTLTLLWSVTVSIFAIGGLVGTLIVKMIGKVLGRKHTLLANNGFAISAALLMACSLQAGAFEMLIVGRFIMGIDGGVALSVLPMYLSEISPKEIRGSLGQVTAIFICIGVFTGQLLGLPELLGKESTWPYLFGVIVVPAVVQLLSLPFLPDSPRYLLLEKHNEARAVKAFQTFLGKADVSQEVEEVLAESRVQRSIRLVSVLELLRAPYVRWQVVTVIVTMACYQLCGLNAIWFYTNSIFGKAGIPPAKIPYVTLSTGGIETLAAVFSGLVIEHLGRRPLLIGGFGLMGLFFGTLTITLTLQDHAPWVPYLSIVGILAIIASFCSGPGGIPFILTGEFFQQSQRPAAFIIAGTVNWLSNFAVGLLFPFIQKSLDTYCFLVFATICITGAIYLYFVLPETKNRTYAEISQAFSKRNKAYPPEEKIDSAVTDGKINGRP

## CCc1oc2ccccc2c1C(=O)c1cc(Br)c(O)c(Br)c1 [Benzbromarone]
SLC2A9
  effect in SLC2A9 membrane potential dye assay vs mock cells: unspecific SLC2A9-independent effect

## Nc1ncnc2c1nc(NCc1ccc(-c3ccccc3)cc1)n2[C@@H]1O[C@H](CO)[C@@H](O)[C@H]1O [CNT2 inhibitor 1]
ENT1 (SLC29A1)
  inhibition of SLC29A1: also inhibited SLC29A1
SLC28A2 (CNT2)
  selectivity for SLC28A2 in the TRACT assay: not selective

## Cc1cccc(COc2ccccc2CN(CC[C@H](N)C(=O)O)Cc2ccccc2OCc2cccc(C)c2)c1 [V-9302]
SLC1A5
  effect in SLC1A5 asparagine uptake assay: no effect

## O=C1CN(/N=C/c2ccc([N+](=O)[O-])o2)C(=O)N1 [nitrofurantoin]
All SLCs
  S_SLCs: 0
MPC2
  primary_SLC_act (MPC2): 5.48
[1]
  S_other: 0

## CCCOc1ccccc1-c1nc2nn[nH]c2c(=O)[nH]1 [zaprinast]
GPR35
  other_targets_act (GPR35): 5.71
All SLCs
  S_SLCs: 0
PDE1C
  other_targets_act (PDE1C): 4.89
PDE5A
  other_targets_act (PDE5A): 5.95
MPC2
  primary_SLC_act (MPC2): 6.52
PDE10A
  other_targets_act (PDE10A): 4.66
[1]
  S_other: 1.11
